Counter-ions that a name gives are not always drawn.
What was measured:
[1] = Acute toxicity; conditions: mouse, in vivo, ip; mice, intraperitoneal, 48 hours after administration
Method: The LD50, the dose at which 50% of the mice died after the intraperitoneal administration of the products to mice was determined 48 hours after the administration.

[2] = system: mice; experiment: Anorexigenic activity in mice; type: in vivo; conditions: 20 mg/kg i.p., food intake over following 24 hours
Method: The anorexigenic activity was studied with mice and the animals receive the product studied intraperitoneally 30 minutes before the start of the test. The quantities of nourishment absorbed in the course of the following 24 hours was noted and compared with the quantity of nourishment absorbed in the course of the same period by animals not receiving the product studied. The anorexigenic activity was expressed by an increasing number of + signs for a given dose expressed in mg/kg.

[3] = system: dog; experiment: Anorexigenic activity in the dog; type: in vivo; conditions: administered in the first ball, 7 hours
Method: The anorexigenic activity was studied on the dog using the method of ADAMS et al [J. Pharm. Sci., Vol. 53 (1964), p. 1405]. On the day of the test of a substance presumed to be anorexigenic, the individual daily ration of the animals was broken down into substantially equal balls (10 to 20 g) which were offered to the dogs every 10 minutes for 7 hours. Normally, the animals regularly accept the successive balls offered to them. Refusal translates the anorexiant effectiveness of the compound studied which was administered in the first ball. The anorexigenic activity was expressed by an increasing number of + signs for a given dose expresses in mg/kg.

[4] = system: rigidity provoked by reserpine; experiment: Antagonism with respect to reserpinic rigidity; type: in vivo; set-up: key to Antagonism to reserpinic rigidity for a determined dose in mg/kg: ++: It was expressed by an increasing number of + signs for a given dose expressed in mg/kg; conditions: rat; for Antagonism to reserpinic rigidity for a determined dose in mg/kg: reserpine 10 mg/kg i.v., E.M.G.
Method: The antagonism of the compounds with respect to reserpinic rigidity [Jurna I: Arch. Pharmak. Exp. Path. Vol. 260 (1968), p. 80-88] was studied on the rat. The tests consisted of recording, by means of electrodes placed on the muscles of the anterior cavity of one of the rear paws of the animal, the electromyogram (E.M.G.) provoked by a dorsiflection of the instep. A dose of 10 mg/kg of reserpine was administered intraveneously, then, one half hour later when the hypertonicity of the muscle was maximal, the product to be studied was administered in the same way at a dose of 10 mg/kg or of 20 mg/kg.
The electromyographic responses obtained before and after treatment, were compared in intensity and in time. The inhibition observed on the electromyogram expressed the antagonism exercised by the product with respect to the rigidity provoked by reserpine. It was expressed by an increasing number of + signs for a given dose expressed in mg/kg.

[5] = system: catalepsy provoked by prochlorpemazine; experiment: Antagonism of catalepsy provoked by prochlorpemazine; type: in vivo; set-up: key to Antagonism of catalepsy provoked by prochloropemazine for a determined dose in mg/kg: evaluated at the height of the effect was expressed by an increasing number of + signs for a given dose; ++: evaluated at the height of the effect was expressed by an increasing number of + signs for a given dose; +++: evaluated at the height of the effect was expressed by an increasing number of + signs for a given dose; conditions: rats; for Antagonism of catalepsy provoked by prochloropemazine for a determined dose in mg/kg: prochlorpemazine 15 mg/kg i.p.; for antagonism toward the cataleptigenic activity of prochlorpemazine: in words, i.p.
Method: The tests are carried out on groups of 5 young rats weighing about 100 g and the cataleptigenic agent used is prochlorpemazine at a dose of 15 mg/kg intraperitoneally. The product studied was administered simultaneously in the same way. The intensity of the catalepsy was evaluated by the test of crossing of the homolateral paws [BOISSIER et al, Therapie, Vol. 18 (1963), p. 1257] every hour for 7 hours. The rating adopted is the following: the animal refuses the crossing of the front paws with the homolateral rear paws (0), he retains the desired crossing on one side only (0.5), he accepts the crossing on both sides (1). The sum of the scores by groups read at different periods after the administration of the product studied is determined. The antagonism of catalepsy provoked by prochlorpemazine evaluated at the height of the effect was expressed by an increasing number of + signs for a given dose and the results are reported in Table II.

[6] = system: stereotypies provoked by dexamphetamine; experiment: Potentiation of stereotypies provoked by dexamphetamine; type: in vivo; set-up: Potentiation of stereotypies provoked by dexamphetamine for a determined dose in mg/kg: key to the marks not given beside the values; conditions: rats; for Potentiation of stereotypies provoked by dexamphetamine for a determined dose in mg/kg: dexamphetamine sulfate 3 mg/kg i.p.
Method: Each animal was placed individually in a grilled cage (29×25 ×17 cm) containing a few wood shavings. A does of 3 mg/kg of dexamphetamine sulfate was injected intraperitoneally one half hour after the intraperitoneal administration of the product studied. The behavior of the animals was noted every half hour for 5 hours with the rating recommended by […] et al [Brit. J. Pharmacol., Vol. 23 (1964), p. 330-350]. The animalis asleep (0), he is awake but immobile (1), he is turning in his cage (2), he is sniffing the lid (3), he is licking the sides (4), he is touching the shavings or the bars of the cage with his teeth (5), he is biting the chips or bars of the cage (6). The total of the scores per group at different periods after the administration of the product studied was determined and the potentiation of the stereotypies evaluated at the height of the effect is expressed by an increasing number of + signs for a given dose.

Cl.FC(F)(F)c1cccc(C2CCCNC2)c1 (stereo not drawn) [Example 1, 3-(m-trifluoromethylphenyl)-piperidine hydrochloride]
LD50 at 48 h [1]: ~150 mg/kg | anorexigenic activity [2]: + | anorexigenic activity ([3]; 20 mg/kg): + | Antagonism to reserpinic rigidity for a determined dose in mg/kg ([4]; 20 mg/kg i.v.): ++ | Antagonism of catalepsy provoked by prochloropemazine for a determined dose in mg/kg ([5]; 20 mg/kg i.p.): ++ | antagonism toward the cataleptigenic activity of prochlorpemazine [5]: substantial antagonism

CN1CCCC(c2cccc(C(F)(F)F)c2)C1.Cl (stereo not drawn) [Example 3, N-methyl-3-(m-trifluoromethylphenyl)-piperidine hydrochloride]
LD50 at 48 h [1]: ~100 mg/kg | Antagonism to reserpinic rigidity for a determined dose in mg/kg ([4]; 20 mg/kg i.v.): ++ | Antagonism of catalepsy provoked by prochloropemazine for a determined dose in mg/kg ([5]; 20 mg/kg i.p.): + | Potentiation of stereotypies provoked by dexamphetamine for a determined dose in mg/kg ([6]; 2 mg/kg i.p.): ++

CC(C)N1CCCC(c2cccc(C(F)(F)F)c2)C1.Cl (stereo not drawn) [Example 4, N-isopropyl-3-(m-trifluoromethylphenyl)-piperidine hydrochloride]
LD50 at 48 h [1]: ~100 mg/kg | anorexigenic activity [2]: + | anorexigenic activity ([3]; 25 mg/kg): + | Antagonism to reserpinic rigidity for a determined dose in mg/kg ([4]; 10 mg/kg i.v.): ++ | Antagonism to reserpinic rigidity ([4]; in words, i.v.): very high activity | Antagonism of catalepsy provoked by prochloropemazine for a determined dose in mg/kg ([5]; 50 mg/kg i.p.): +++ | antagonism toward the cataleptigenic activity of prochlorpemazine [5]: substantial antagonism | Potentiation of stereotypies provoked by dexamphetamine for a determined dose in mg/kg ([6]; 0.2 mg/kg i.p.): +++ | activity of potentiation of stereotypies provoked by dexamphetamine ([6]; in words, i.p.): very high activity

FC(F)(F)c1cccc(C2CCCN(Cc3ccccc3)C2)c1 (stereo not drawn) [Example 6, N-benzyl-3-(m-trifluoromethylphenyl)-piperidine hydrochloride]
LD50 at 48 h [1]: ~150 mg/kg | Potentiation of stereotypies provoked by dexamphetamine for a determined dose in mg/kg ([6]; 20 mg/kg i.p.): ++

Source: patent US4259337A, “Method for using m-trifluoromethylphenyl-piperidines” (Roussel Uclaf, priority 1976, dated 1981)
